Results: ChEMBL document CHEMBL4038316, “Enantioselective Synthesis and in Vivo Evaluation of Regioisomeric Analogues of the Antimalarial Arterolane” (J Med Chem, 2017)
In brackets after ≈: the same amount, converted by molar mass.

How the values were obtained:
Plasmodium falciparum [1] = assay: Antiplasmodial activity against chloroquine-resistant Plasmodium falciparum W2 infected in human RBC after 48 hrs by YOYO-1 staining-based flow cytometry method; assay type: functional; conditions: W2, 48 h
Liver [2] = assay: (§1) Half life in mouse liver microsomes in absence of NADPH; assay type: ADME, microsome; conditions: microsomes
Plasmodium berghei [3] = assay: Antiplasmodial activity against Plasmodium berghei infected in Swiss Webster mouse assessed as cure rate at 6 mg/kg/day administered for 4 days via oral gavage starting at 1 hr post infection measured after 30 days relative to control; assay type: functional
Liver [4] = conditions: mouse, microsomes
Description: (§3) Intrinsic clearance in mouse liver microsomes assessed per mg of protein

Liver [5] = assay: (§2) Half life in mouse liver microsomes; assay type: ADME, microsome; conditions: microsomes
Plasmodium berghei [6] = assay: Antiplasmodial activity against Plasmodium berghei infected in Swiss Webster mouse assessed as cure rate at 4 mg/kg/day administered for 4 days via oral gavage starting at 1 hr post infection measured after 30 days relative to control; assay type: functional
Liver [7] = assay: Metabolic stability in mouse liver microsomes in absence of NADPH; assay type: ADME, microsome
in vitro = conditions: mouse, liver microsomes
Description: as §3

[8] = as §2; assay type: ADME, microsome; conditions: liver microsomes
Plasmodium berghei [9] = assay: Antiplasmodial activity against Plasmodium berghei infected in Swiss Webster mouse assessed as cure rate at 13.6 mg/kg/day administered for 4 days via oral gavage starting at 1 hr post infection measured after 30 days relative to control; assay type: functional
Plasmodium berghei [10] = assay: Antiplasmodial activity against Plasmodium berghei infected in Swiss Webster mouse assessed as cure rate at 9.5 mg/kg/day administered for 4 days via oral gavage starting at 1 hr post infection measured after 30 days relative to control; assay type: functional
Plasmodium berghei [11] = assay: Antiplasmodial activity against Plasmodium berghei infected in Swiss Webster mouse assessed as cure rate at 1 mg/kg/day administered for 4 days via oral gavage starting at 1 hr post infection measured after 30 days relative to control; assay type: functional
Plasmodium berghei [12] = assay: Antiplasmodial activity against Plasmodium berghei infected in Swiss Webster mouse assessed as increase in cure rate administered for 4 days via oral gavage starting at 1 hr post infection measured after 30 days; assay type: functional; conditions: for ED50: Plasmodium berghei, po, read-out: PD50
Plasmodium berghei [13] = assay: Antiplasmodial activity against Plasmodium berghei infected in Swiss Webster mouse assessed as cure rate at 10 mg/kg/day administered for 4 days via oral gavage starting at 1 hr post infection measured after 30 days relative to control; assay type: functional
physchem = conditions: PBS, pH 7.4
Description: (§4) Kinetic solubility of the compound in PBS at pH 7.4

Plasmodium berghei [14] = assay: Antiplasmodial activity against Plasmodium berghei infected in Swiss Webster mouse assessed as cure rate at 0.5 mg/kg/day administered for 4 days via oral gavage starting at 1 hr post infection measured after 30 days relative to control; assay type: functional
[15] = as §1; assay type: ADME, microsome; conditions: liver microsomes
Plasmodium berghei [16] = assay: Antiplasmodial activity against Plasmodium berghei infected in Swiss Webster mouse assessed as cure rate at 2 mg/kg/day administered for 4 days via oral gavage starting at 1 hr post infection measured after 30 days relative to control; assay type: functional
Plasmodium berghei [17] = assay: Antiplasmodial activity against Plasmodium berghei infected in Swiss Webster mouse assessed as cure rate at 4 mg/kg/day administered for 3 days via oral gavage starting at 1 hr post infection measured after 30 days relative to control; assay type: functional
Plasmodium berghei [18] = assay: Antiplasmodial activity against Plasmodium berghei infected in Swiss Webster mouse assessed as cure rate at 80 mg/kg/day administered for 1 day via oral gavage starting at 1 hr post infection measured after 30 days relative to control; assay type: functional
Plasmodium berghei [19] = assay: Antiplasmodial activity against Plasmodium berghei infected in Swiss Webster mouse assessed as cure rate at 4 mg/kg/day administered for 2 days via oral gavage starting at 1 hr post infection measured after 30 days relative to control; assay type: functional
Plasmodium berghei [20] = assay: Antiplasmodial activity against Plasmodium berghei infected in Swiss Webster mouse assessed as cure rate at 40 mg/kg/day administered for 2 days via oral gavage starting at 1 hr post infection measured after 30 days relative to control; assay type: functional
Plasmodium berghei [21] = assay: Antiplasmodial activity against Plasmodium berghei infected in Swiss Webster mouse assessed as cure rate at 4 mg/kg/day administered for 1 day via oral gavage starting at 1 hr post infection measured after 30 days relative to control; assay type: functional
Plasmodium berghei [22] = assay: Antiplasmodial activity against Plasmodium berghei infected in Swiss Webster mouse assessed as cure rate at 40 mg/kg/day administered for 1 day via oral gavage starting at 1 hr post infection measured after 30 days relative to control; assay type: functional
Plasmodium falciparum [23] = assay: Antiplasmodial activity against Plasmodium falciparum Cam3.2_rev infected in human RBC assessed as time required to reduce early ring stage parasite viability by 50% by SYTO 61-staining-based flow cytometry; assay type: functional
Plasmodium falciparum [24] = assay: Antiplasmodial activity against Plasmodium falciparum Cam3.2 infected in human RBC assessed as time required to reduce early ring stage parasite viability by 50% by SYTO 61-staining-based flow cytometry; assay type: functional
[25] = buffer, pH 7.4
Description: as §4

SMILES	EC50 (Plasmodium falciparum [1]) [nM]	Activity (Plasmodium berghei [3])	Activity (Plasmodium berghei [6])	Stability (Liver [7])	also measured
O=C(C[C@H]1CC[C@]2(CC1)OO[C@]1(O2)C2CC3CC(C2)CC1C3)N1CCNCC1	1.9	100%	100%	–	t1/2 (Liver [2]): 1.48 h; CLH (Liver [4]): 14.4 µL/min; t1/2 (Liver [5]): 0.802 h
NCCNC(=O)C[C@H]1CC[C@]2(CC1)OO[C@]1(O2)C2CC3CC(C2)CC1C3	3.6	20%	0%	–	t1/2 (Liver [2]): 1.17 h; CLH (Liver [4]): 10.8 µL/min; t1/2 (Liver [5]): 1.07 h
CC(C)(CN)CNC(=O)C[C@H]1CC[C@]2(CC1)OO[C@]1(O2)C2CC3CC(C2)CC1C3	2.6	100%	40%	Stable	CLH (Liver [4]): 4.3 µL/min; t1/2 (Liver [5]): 2.68 h
N[C@H]1CC[C@H](NC(=O)C[C@H]2CC[C@]3(CC2)OO[C@]2(O3)C3CC4CC(C3)CC2C4)CC1	4.5	80%	80%	–	–
NC1CCN(C(=O)C[C@H]2CC[C@]3(CC2)OO[C@]2(O3)C3CC4CC(C3)CC2C4)CC1	1.3	100%	100%	Stable	CLH (Liver [4]): 2.5 µL/min; t1/2 (Liver [5]): 4.62 h
NC(=O)CNC(=O)C[C@@H]1CCC[C@]2(C1)OOC1(O2)C2CC3CC(C2)CC1C3 (stereo not given in full)	10.6	–	–	Stable	microsomal CLint (in vitro): 18.6 µL/min/mg; half-life [8]: 0.622 h
CN1CCN(C(=O)C[C@@H]2CCC[C@]3(C2)OOC2(O3)C3CC4CC(C3)CC2C4)CC1 (stereo not given in full)	4.4	0%	0%	–	–
CC(C)(N)CNC(=O)C[C@H]1CC[C@]2(CC1)OOC1(O2)C2CC3CC(C2)CC1C3.Cc1ccc(S(=O)(=O)O)cc1 (stereo not given in full)	–	–	–	–	Activity (Plasmodium berghei [9]): 100%
CC(C)(CN)CNC(=O)C[C@@H]1CCC[C@]2(C1)OOC1(O2)C2CC3CC(C2)CC1C3 (stereo not given in full)	4.1	0%	0%	Stable	microsomal CLint (in vitro): 10.8 µL/min/mg; half-life [8]: 1.07 h
CN1CCN(C(=O)C[C@H]2CC[C@]3(CC2)OO[C@]2(O3)C3CC4CC(C3)CC2C4)CC1	4.9	0%	0%	–	–
O=C(C[C@@H]1CCC[C@]2(C1)OOC1(O2)C2CC3CC(C2)CC1C3)N1CCNCC1 (stereo not given in full)	2.9	20%	0%	Stable	microsomal CLint (in vitro): 27.2 µL/min/mg; half-life [8]: 0.425 h
CC(C)(N)CNC(=O)C[C@@H]1CCC[C@]2(C1)OOC1(O2)C2CC3CC(C2)CC1C3.Cc1ccc(S(=O)(=O)O)cc1 (stereo not given in full)	–	–	–	–	Activity (Plasmodium berghei [9]): 100%
CC(C)(N)CNC(=O)C[C@@H]1CCC[C@]2(C1)OOC1(O2)C2CC3CC(C2)CC1C3 (stereo not given in full)	3	60%	–	Stable	microsomal CLint (in vitro): 4.1 µL/min/mg; Activity (Plasmodium berghei [10]): 100%; Activity (Plasmodium berghei [11]): 0%; PD100 (Plasmodium berghei [12]): 10 mg/kg/day; ED50 (Plasmodium berghei [12]): 6 mg/kg/day; Activity (Plasmodium berghei [13]): 100%; half-life [8]: 2.82 h; solubility kinetic (physchem): 429 µM (≈ 168 µg/mL)
O=C(C[C@@H]1CCC[C@]2(C1)OOC1(O2)C2CC3CC(C2)CC1C3)N1CCOCC1 (stereo not given in full)	6.8	0%	0%	–	–
O=C(C[C@@H]1CCC[C@]2(C1)OOC1(O2)C2CC3CC(C2)CC1C3)N1CCCCC1 (stereo not given in full)	31.4	–	–	–	–
NC1CCN(C(=O)C[C@@H]2CCC[C@]3(C2)OOC2(O3)C3CC4CC(C3)CC2C4)CC1 (stereo not given in full)	3.9	–	–	Stable	microsomal CLint (in vitro): 8.2 µL/min/mg; PD100 (Plasmodium berghei [12]): 4 mg/kg/day; half-life [8]: 1.41 h
NCCNC(=O)C[C@@H]1CCC[C@]2(C1)OOC1(O2)C2CC3CC(C2)CC1C3 (stereo not given in full)	5.4	100%	–	–	microsomal CLint (in vitro): 8.2 µL/min/mg; Activity (Plasmodium berghei [14]): 0%; half-life [15]: 2.27 h; Activity (Plasmodium berghei [16]): 0%; Activity (Plasmodium berghei [17]): 20%; Activity (Plasmodium berghei [11]): 0%; Activity (Plasmodium berghei [18]): 20%; Activity (Plasmodium berghei [19]): 0%; half-life [8]: 1.41 h; Activity (Plasmodium berghei [20]): 100%; Activity (Plasmodium berghei [21]): 0%; Activity (Plasmodium berghei [22]): 0%
N[C@H]1CC[C@H](NC(=O)C[C@@H]2CCC[C@]3(C2)OOC2(O3)C3CC4CC(C3)CC2C4)CC1 (stereo not given in full)	5.9	100%	60%	–	–
NC(=O)CNC(=O)C[C@H]1CC[C@]2(CC1)OO[C@]1(O2)C2CC3CC(C2)CC1C3	9.2	0%	0%	Stable	CLH (Liver [4]): 5.6 µL/min; t1/2 (Liver [5]): 2.07 h
O=C(C[C@H]1CC[C@]2(CC1)OO[C@]1(O2)C2CC3CC(C2)CC1C3)N1CCCCC1	57	0%	0%	–	–
O=C(C[C@H]1CC[C@]2(CC1)OO[C@]1(O2)C2CC3CC(C2)CC1C3)N1CCOCC1	20.7	0%	0%	–	–
c1cc([C@H]2CC[C@]3(CC2)OO[C@]2(O3)C3CC4CC(C3)CC2C4)ccc1OCCN1CCOCC1 [ARTEFENOMEL]	–	–	–	–	Time (Plasmodium falciparum [23]): 2 h; Time (Plasmodium falciparum [24]): 5 h
C[C@H]1[C@@H](O)O[C@@H]2O[C@@]3(C)CC[C@H]4[C@H](C)CC[C@@H]1[C@@]24OO3 [ARTENIMOL]	–	–	–	–	Time (Plasmodium falciparum [23]): 1 h; Time (Plasmodium falciparum [24]): 3 h
O=C(O)Cc1ccccc1Nc1c(Cl)cccc1Cl [DICLOFENAC]	–	–	–	–	CLH (Liver [4]): 12.5 µL/min
Cc1ncc2n1-c1ccc(Cl)cc1C(c1ccccc1F)=NC2 [MIDAZOLAM]	–	–	–	–	CLH (Liver [4]): 420 µL/min; t1/2 (Liver [5]): 0.0275 h
CC(C)(N)CNC(=O)C[C@H]1CC[C@]2(CC1)OO[C@]1(O2)C2CC3CC(C2)CC1C3 [OZ277]	2.5	80 - 100%	20 - 80%	Stable	Time (Plasmodium falciparum [23]): 1 h; Activity (Plasmodium berghei [11]): 0%; CLH (Liver [4]): 5.4 µL/min; PD100 (Plasmodium berghei [12]): 10 mg/kg/day; ED50 (Plasmodium berghei [12]): 4 mg/kg/day; Time (Plasmodium falciparum [24]): 3 h; Activity (Plasmodium berghei [13]): 100%; t1/2 (Liver [5]): 2.13 h
C[C@]12CC[C@H]3[C@@H](CCC4=CC(=O)CC[C@@]43C)[C@@H]1CC[C@@H]2O [TESTOSTERONE]	–	–	–	–	Kinetic_solubility [25]: 315 µM
